According to paper PMC9784495, “Pharmacokinetic Comparison of Ginsenosides between Fermented and Non-Fermented Red Ginseng in Healthy Volunteers” (Pharmaceutics, 2022):
Several values for one entry are separate records, joined by “and”; a condition that tells them apart may be missing. Identical values can stand only once. Entries after “also recorded” stand apart in the source; their conditions may differ. Like-named read-outs stand apart in the source and are kept apart here. Marks after values point to notes of the source that are not given here.

Assay: Pharmacokinetics of ginsenosides in plasma after a single oral dose of 6 g FRG or RG, crossover clinical trial
Format: in vivo, human
Details: for AUC24 GMR (90% CI) / AUClast GMR (90% CI) / Cmax GMR (90% CI): geometric mean ratio FRG with respect to RG; for Tmax / AUC / Cmax / AUC(0-t): human, po
Method: This study was designed as a randomized, open-label, single-dose, 2-sequence, 2-period crossover study with a washout period of 2 weeks to compare the pharmacokinetic parameters of ginsenosides in RG and FRG. All subjects underwent a screening test for enrollment in the current study, and the enrolled subjects were randomly allocated into one of two sequence groups: sequence 1, and sequence 2. The subjects in sequence group 1 were administered 6 g of FRG extract with 200 mL water in the first period, and 6 g of RG extract with 200 mL water in the second period, after a washout period of 2 weeks from the first administration. Subjects in sequence group 2 were administered 6 g of RG extract with 200 mL water in the first period, and then 6 g of FRG extract with 200 mL water in the second period, after the same washout period. During each period, for groups 1 and 2, subjects were hospitalized at the clinical trial center of Kyung Hee University Hospital at 5 PM the day before FRG or RG administration. They received a standardized dinner and fasted, except for drinking water, until FRG or RG administration. The following day, subjects were administered FRG or RG at 8 AM according to the assigned sequence group, and were not allowed to eat until 1 PM. All participants were provided lunch and dinner by the study staff. They were discharged at 2 PM the day after dosing with FRG or RG, and visited the clinical trial center at 8 AM the day after discharge. To assess pharmacokinetic parameters, blood samples (9 mL) were serially collected into heparinized tubes just before (0 h) the dose of FRG or RG, and after the dose of FRG or RG at the following time points: 0.5, 1, 2, 3, 4, 5, 6, 7, 8, 10, 12, 14, 24, and 30 h during hospitalization, and 48 h at the outpatient visit. Blood samples were placed into heparinized tubes and centrifuged immediately at 3500× g, 10 min, and −4 °C. Plasma was stored at −70 °C.
CY, CK, PPD, PPT, and Rh2 were analyzed as previously described. An Agilent 1200 series (Agilent Technologies, Santa Clara, CA, USA) or Shimadzu Nexera X2 (Shimadzu, Tokyo, Japan), and Applied Biosystems MDS SCIEX API 4000 Triple Quadrupole Mass Spectrometer (SCIEX, Framingham, MA, USA) with an ESI source in the negative ion mode, were used. Data were analyzed and processed using the Analyst 1.6.2 program (SCIEX, Framingham, MA, USA). Rb1 and F2 were analyzed using Elute UHPLC (Bruker, Billerica, MA, USA) and an EVOQ Elite triple quadrupole mass spectrometer (Bruker, Billerica, MA, USA) with an ESI source in positive ion mode. Data were acquired and processed using the Analyst 1.6.2 program (SCIEX, Framingham, MA, USA), and Bruker Daltonic MS Workstation 8.2.1 (Bruker, Billerica, MA, USA). Ginsenosides standards (Rb1, Rh2 and C-Y) were provided by the Ambo Institute (Daejeon, Republic of Korea). Ginsenosides standards (F2, CK, PPD and PPT) were provided by Ace Enzyme (Kyunggi-do, Republic of Korea). Digoxin, diphenhydramine hydrochloride, formic acid, ammonium acetate, and dimethyl sulfoxide were purchased from Sigma Aldrich (Saint Louis, MO, USA). Methanol, acetonitrile, ethyl acetate, and methyl tertiary butyl ether were purchased from J.T. Baker (Philipsburg, NJ, USA) and purified water for HPLC analysis was obtained using AQUA max® by Younglin (Kyunggi-do, Republic of Korea) water purification system. The final concentrations of the calibration standards were 0.5, 1, 2, 5, 10, 25, and 50 ng/mL, and those of the QC samples were 1.5, 7.5, and 40 ng/mL. The final concentrations of the CK calibration standard were 5, 50, 250, 500, 1000, 1500, and 2500 ng/mL, and those of the QC samples were 15, 1200, and 2000 ng/mL. The human plasma samples were taken out of the −70 °C freezer and thawed at room temperature for the bioanalysis. […]

[1] = plasma, after 6 g RG oral single dose, median (min, max), read-out: Tmax
[2] = plasma, plasma, after 6 g RG oral single dose, 0 to 24 h, mean ± SD, read-out: AUC24
[3] = plasma, plasma, after 6 g RG oral single dose, healthy volunteers, mean ± SD, n = 15, read-out: Cmax
[4] = plasma, plasma, after 6 g RG oral single dose, mean ± SD, read-out: AUClast
[5] = plasma, after 6 g FRG oral single dose, median (min, max), read-out: Tmax
[6] = plasma, plasma, after 6 g FRG oral single dose, 0 to 24 h, mean ± SD, read-out: AUC24
[7] = plasma, plasma, after 6 g FRG oral single dose, healthy volunteers, mean ± SD, n = 15, read-out: Cmax
[8] = plasma, plasma, after 6 g FRG oral single dose, mean ± SD, read-out: AUClast

SMILES | AUC24 GMR (90% CI) | AUClast GMR (90% CI) | Cmax GMR (90% CI) | Tmax [1] | AUC [2] | Cmax [3] | AUC(0-t) [4] | Tmax [5] | AUC [6] | Cmax [7] | AUC(0-t) [8] | other results
CC(C)=CCC[C@](C)(O)[C@H]1CC[C@]2(C)[C@@H]1[C@H](O)C[C@@H]1[C@@]3(C)CC[C@H](O[C@@H]4O[C@H](CO)[C@@H](O)[C@H](O)[C@H]4O)C(C)(C)[C@@H]3CC[C@]12C [Rh2] | 18.17 fold and 18.17 (12.4, 26.62) * fold | 18.47 fold and 18.47 (12.74, 26.78) * fold | 20.27 fold and 20.27 (15.13, 27.17) * fold |  |  |  |  |  |  |  |  | Tmax (in vivo, after 6 g FRG oral single dose, median (min, max), read-out: Tmax): 3.02 h; Tmax (in vivo, after 6 g RG oral single dose, median (min, max), read-out: Tmax): 3 h; AUC (in vivo, plasma, after 6 g FRG oral single dose, 0 to 24 h, mean ± SD, read-out: AUC24): 135 ± 44.4 ng·h/mL; Cmax (in vivo, plasma, after 6 g FRG oral single dose, healthy volunteers, mean ± SD, n = 15, read-out: Cmax): 33 ± 11.9 ng/mL; AUC(0-t) (in vivo, plasma, after 6 g FRG oral single dose, mean ± SD, read-out: AUClast): 133 ± 42.6 ng·h/mL; AUC (in vivo, plasma, after 6 g RG oral single dose, 0 to 24 h, mean ± SD, read-out: AUC24): 8.97 ± 5.57 ng·h/mL; Cmax (in vivo, plasma, after 6 g RG oral single dose, healthy volunteers, mean ± SD, n = 15, read-out: Cmax): 1.77 ± 1.17 ng/mL; AUC(0-t) (in vivo, plasma, after 6 g RG oral single dose, mean ± SD, read-out: AUClast): 8.35 ± 4.31 ng·h/mL
CC(C)=CCC[C@](C)(O[C@@H]1O[C@H](CO[C@@H]2OC[C@H](O)[C@H](O)[C@H]2O)[C@@H](O)[C@H](O)[C@H]1O)[C@H]1CC[C@]2(C)[C@@H]1[C@H](O)C[C@@H]1[C@@]3(C)CC[C@H](O)C(C)(C)[C@@H]3CC[C@]12C [CY, compound Y] |  |  |  |  |  |  |  |  |  |  |  | AUC (in vivo, AUC24): 33.4 ± 9.82 ng·h/mL; AUC(0-t) (in vivo, AUClast): 32.5 ± 9.44 ng·h/mL; Cmax (in vivo, Cmax): 8.38 ± 2.22 ng/mL; Tmax (in vivo, Tmax): 3.02 h
CC(C)=CCC[C@](C)(O[C@@H]1O[C@H](CO[C@@H]2O[C@H](CO)[C@@H](O)[C@H](O)[C@H]2O)[C@@H](O)[C@H](O)[C@H]1O)[C@H]1CC[C@]2(C)[C@@H]1[C@H](O)C[C@@H]1[C@@]3(C)CC[C@H](O[C@@H]4O[C@H](CO)[C@@H](O)[C@H](O)[C@H]4O[C@@H]4O[C@H](CO)[C@@H](O)[C@H](O)[C@H]4O)C(C)(C)[C@@H]3CC[C@]12C [Rb1] |  |  |  | 8 h | 36.5 ± 25.6 ng·h/mL | 2.33 ± 1.61 ng/mL | 62.4 ± 48.1 ng·h/mL |  |  |  |  | Plasma concentrations (after 6 g FRG): below the LLOQ
CC(C)=CCC[C@](C)(O)[C@H]1CC[C@]2(C)[C@@H]1[C@H](O)C[C@@H]1[C@@]3(C)CC[C@H](O)C(C)(C)[C@@H]3[C@@H](O)C[C@]12C [PPT, protopanaxatriol] | 1.87 fold and 1.87 (1.16, 3.01) ^† fold | 1.76 fold and 1.76 (1.17, 2.65) ^† fold | 2.56 fold and 2.56 (1.83, 3.57) * fold | 19 h | 34.1 ± 24.7 ng·h/mL | 3.5 ± 2 ng/mL | 45.7 ± 32.1 ng·h/mL | 6 h | 63.7 ± 42.8 ng·h/mL | 8.92 ± 5.38 ng/mL | 83 ± 59.4 ng·h/mL | 
CC(C)=CCC[C@](C)(O)[C@H]1CC[C@]2(C)[C@@H]1[C@H](O)C[C@@H]1[C@@]3(C)CC[C@H](O)C(C)(C)[C@@H]3CC[C@]12C [PPD, protopanaxadiol] |  | 4.97 (2.38, 10.34) ^‡ fold |  | 27.1 h | 13.9 ± 19.1 ng·h/mL | 1.99 ± 1.62 ng/mL | 20.3 ± 25.1 ng·h/mL | 12 h | 48.7 ± 41.1 ng·h/mL | 5.65 ± 4.78 ng/mL | 92.2 ± 96.5 ng·h/mL | 
CC(C)=CCC[C@](C)(O[C@@H]1O[C@H](CO)[C@@H](O)[C@H](O)[C@H]1O)[C@H]1CC[C@]2(C)[C@@H]1[C@H](O)C[C@@H]1[C@@]3(C)CC[C@H](O[C@@H]4O[C@H](CO)[C@@H](O)[C@H](O)[C@H]4O)C(C)(C)[C@@H]3CC[C@]12C [Ginsenoside F2] |  |  |  |  |  |  |  | 4.03 h | 142 ± 34.3 ng·h/mL | 14.7 ± 3.58 ng/mL | 168 ± 47.4 ng·h/mL | Plasma concentrations (after 6 g RG, F2 except one subject): below the lower limit of quantification; also recorded: below the LLOQ
CC(C)=CCC[C@](C)(O[C@@H]1O[C@H](CO)[C@@H](O)[C@H](O)[C@H]1O)[C@H]1CC[C@]2(C)[C@@H]1[C@H](O)C[C@@H]1[C@@]3(C)CC[C@H](O)C(C)(C)[C@@H]3CC[C@]12C [CK, compound K] | 64.86 fold and 64.86 (51.12, 82.29) * fold | 74.53 fold and 74.53 (59.32, 93.64) * fold | 69.23 fold and 69.23 (55.93, 85.69) * fold |  | 158 ± 125 ng·h/mL | 23.8 ± 12.2 ng/mL | 145 ± 106 ng·h/mL | 3.02 h | 8710 ± 2360 ng·h/mL | 1550 ± 394 ng/mL | 9440 ± 2620 ng·h/mL | Difference of median Tmax, FRG higher than RG (FRG versus RG): 1 h
